The text below walks through data of US6652890B2, “Tea catechins as cancer specific proliferation inhibitors” (Purdue Research Foundation, priority 1999, dated 2003).

Values joined by “and” are separate entries in the source; they are usually repeats but may differ in a detail not shown here. Identical values can stand only once. “Also recorded” adds a separate entry of the source. Like-named read-outs stand apart in the source and are kept apart here.

Holding throughout (format): cell-based
Test [1] concerns MCF-10A human mammary epithelial (non-cancer) cells. In words: Effect on intact cells in culture (growth, morphology, DAPI).
Test [2] concerns the target T1, tNOX activity of intact 4T1 mouse mammary cells (Mus musculus, UniProt Q8R0Z2).
T1 construct: endogenous in cells; host or cells: 4T1 mouse mammary carcinoma cells (intact)
T1 sequence (Q8R0Z2 1-598): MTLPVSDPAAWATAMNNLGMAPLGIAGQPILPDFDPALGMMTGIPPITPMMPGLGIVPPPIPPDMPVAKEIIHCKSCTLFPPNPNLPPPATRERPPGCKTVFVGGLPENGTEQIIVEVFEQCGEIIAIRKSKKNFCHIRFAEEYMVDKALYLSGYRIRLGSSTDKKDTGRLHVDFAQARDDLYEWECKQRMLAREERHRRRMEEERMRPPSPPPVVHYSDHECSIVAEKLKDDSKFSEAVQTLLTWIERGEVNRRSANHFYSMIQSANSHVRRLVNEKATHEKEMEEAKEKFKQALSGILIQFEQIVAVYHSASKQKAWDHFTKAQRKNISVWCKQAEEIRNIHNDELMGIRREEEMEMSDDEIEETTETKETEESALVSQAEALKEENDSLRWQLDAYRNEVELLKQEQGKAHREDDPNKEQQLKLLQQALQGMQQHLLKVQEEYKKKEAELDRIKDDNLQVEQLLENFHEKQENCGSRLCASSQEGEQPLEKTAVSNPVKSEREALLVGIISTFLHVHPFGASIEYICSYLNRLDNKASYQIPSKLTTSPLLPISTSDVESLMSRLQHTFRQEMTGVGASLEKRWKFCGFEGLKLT
Description: Inhibition of tNOX (NADH oxidase) activity of intact 4T1 cells. The protocol: (§1) A mouse mammary tumor subpopulation line 4T1 arising from a BALB/cf C3H mouse was grown in DME-10, Dulbecco's modified Eagle's medium supplemented with 5% fetal calf serum, 5% newborn calf serum, 1 mM mixed non-essential amino acids, 2 mM L-glutamine, penicillin (100 units/ml), and streptomycin (100 μg/ml) (Miller et al., 1987, Brit. J. Can. 56:561-569 and Miller et al., 1990, Invasion Metastasis 10:101-112).
NADH oxidase activity was determined as the disappearance of NADH measured at 340 nm in a reaction mixture containing 25 mM Tris-Mes buffer (pH 7.2), 1 mM KCN, and 150 μM NADH at 37° C. Activity was measured using a Hitachi U3210 spectrophotometer with stirring and continuous recording over two intervals of 5 min each. A millimolar extinction coefficient of 6.22 was used to determine specific activity.
(§2) NADH oxidase activity was determined as the disappearance of NADH measured at 340 nm in a reaction mixture containing 25 mM Tris-Mes buffer (pH 7.2), 1 mM KCN, and 150 μM NADH at 37° C. Activity was measured at 340 nm with reference at 430 nm using an SLM Aminco DW-2000 spectrophotometer (Milton Roy, Rochester, N.Y.) in the dual beam mode of operation with stirring and continuous recording over two intervals of 5 min each. A millimolar extinction coefficient of 6.22 was used to determine specific activity.

Test [3] deals with CHO cells. In words: Growth of CHO cells. Conditions: EGCg.
Test [4] deals with T2, CNOX (Mus musculus, UniProt Q8BHR2).
T2 construct: endogenous in cells; host or cells: 4T1 mouse mammary carcinoma cells (intact)
T2 sequence (Q8BHR2 1-643): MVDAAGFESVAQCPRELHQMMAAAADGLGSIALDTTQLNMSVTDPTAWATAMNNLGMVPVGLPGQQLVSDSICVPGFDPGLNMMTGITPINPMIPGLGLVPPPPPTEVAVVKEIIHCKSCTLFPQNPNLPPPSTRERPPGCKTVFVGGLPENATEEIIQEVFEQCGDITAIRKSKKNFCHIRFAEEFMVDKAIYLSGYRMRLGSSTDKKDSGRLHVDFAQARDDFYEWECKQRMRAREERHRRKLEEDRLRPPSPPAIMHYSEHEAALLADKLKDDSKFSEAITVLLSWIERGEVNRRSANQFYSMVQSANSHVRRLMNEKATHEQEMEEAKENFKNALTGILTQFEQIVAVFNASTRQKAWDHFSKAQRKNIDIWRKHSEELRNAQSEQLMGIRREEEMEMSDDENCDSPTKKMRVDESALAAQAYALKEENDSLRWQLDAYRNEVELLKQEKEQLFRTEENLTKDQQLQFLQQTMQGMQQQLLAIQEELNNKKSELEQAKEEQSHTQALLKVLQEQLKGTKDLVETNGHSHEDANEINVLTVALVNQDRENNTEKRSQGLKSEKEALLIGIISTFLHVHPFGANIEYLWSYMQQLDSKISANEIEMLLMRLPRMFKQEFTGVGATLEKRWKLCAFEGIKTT
Description: CNOX activity of intact 4T1 cells. Conditions: not effective up to and including this concentration. The protocol: as §1, §2

Test [5] has as its system BT-20 human mammary adenocarcinoma cells. In words: Effect on intact cells in culture (growth, morphology, DAPI). As to the method:
BT-20 human breast adenocarcinoma cells were cultured in Eagle's minimal essential medium nonessential amino acids and Earle's balanced salts supplement with 10% fetal bovine serum. Media were renewed as for MCF-10A cells. […] The coverslips were rinsed and the cells fixed in methanol followed by addition of fluorescent dye 4′,6-diamidino-2-phenylindole (DAPI) as described (Wolvetang et al., 1994, FEBS Lett. 339:40-44). Cells were observed and photographed at a primary magnification of 400×.

The mark [6] stands for this setting: 10 μM EGCg added at t=0, 96 h, FIG. 4.
Setting [7] is: 10^−6 M EGCg twice daily for 96 h.

Take (−) - epigallocatechin gallate [EGCg]: the “Fate of treated cells” value in test [1] (setting [6]) is “quickly recovered and eventually grew normally; also recorded: recovered fully”; in test [5] (setting [6]), “did not recover and died; also recorded: stopped growing and died”. The “Growth rate and cell diameters” value in test [1] (setting [7]) is reported as “unaffected or slightly increased”. For the same substance, the “Response of the cell line” value was “no response” in test [1] (10^−6 M EGCg, 72 h) and “no response” in test [5] (10^−6 M EGCg, 72 h). In addition, the Growth of cells entry in test [1] (EGCg, unaffected except at very high doses of 10^−4 M, FIG. 2C) was “unaffected; also recorded: much less affected”. Besides, the “tNOX inhibition by EGCg, EC>90” value in test [2] (EC concentration 0 M) is on record as 10^−7 M; in test [2] (EC concentration 10^−4 M), 10^−8 M; in test [2] (EC concentration 10^−6 M) it was 10^−8 M; in test [2] (EC concentration 10^−8 M), 10^−7 M. Also, the EC50 in test [2] (in the presence of 10^−4 M EC, read-out: EC50 for inhibition of the drug-responsive component of the plasma membrane NADH oxidase) is 2 nM; in test [2] (read-out: tNOX inhibition by EGCg, EC50, EC concentration 0 M), ~10 nM and 10 nM; in test [2] (read-out: tNOX inhibition by EGCg, EC50, EC concentration 10^−4 M), 0.5 nM; in test [2] (read-out: tNOX inhibition by EGCg, EC50, EC concentration 10^−6 M), 1 nM; in test [2] (read-out: tNOX inhibition by EGCg, EC50, EC concentration 10^−8 M) it was 10 nM. Further, in test [2] (with both 10^−6 and 10^−4 M EC), the “Enhancement of the efficacy of EGCg inhibition” value is recorded as at least 10 fold. Further, the “Growth of CHO cells” value in test [3] was “much less affected”. Further, the “Concentration effective in inhibiting the residual CNOX activity” value in test [4] is recorded as > 10^−6 M. In test [5] (setting [7]), the “Reduction of cell diameter” value is on record as “about 25%”. Moreover, the “Reduction of cell number” value in test [5] (setting [7]) is “about 25%”. Also, the “Reduction of cell volume” value in test [5] (setting [7]) is listed as 50%. Besides, the “Condensed chromatin (DAPI staining)” value in test [5] (10 or 50 μM EGCg, 96 h, FIG. 5) is listed as “characteristic of apoptosis”.

For orientation: EC50 means the concentration giving half of the maximal effect.
